Test results reported in PMC9266368, “Synthesis and Biological Evaluation of Small Molecules as Potential Anticancer Multitarget Agents” (International Journal of Molecular Sciences, 2022).
Where “and” joins values, the source holds several entries; their conditions need not be identical. Equal entries are not always repeated.

How the values were obtained:
[1] = tested on: HT-29 (colon adenocarcinoma); assay: MTT cell viability assay, HT-29; format: cell-based; settings: Homo sapiens, HT-29, 48 h, 2 days incubation, average ±SD of three experiments
Procedure, shortened: (§1)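 Cells seeded at 3 × 10^3 (A549, HEK-293) or 5 × 10^3 (HT-29, MCF-7) per well and exposed to serial compound dilutions for 2 days at 37 °C, 5% CO2. MTT added for 3 h, formazan dissolved in DMSO, absorbance at 550 nm; viability relative to untreated cells, IC50 from three independent experiments.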

[2] = tested on: A-549 (lung adenocarcinoma); assay: MTT cell viability assay, A-549; format: cell-based; settings: Homo sapiens, A549, 48 h, 2 days incubation, average ±SD of three experiments
Procedure, shortened: as §1

[3] = tested on: HEK-293 (human embryonic kidney cells); assay: MTT cell viability assay, HEK-293; format: cell-based; settings: HEK293, 48 h, 2 days incubation, non-tumor cell line, average ±SD of three experiments
Procedure, shortened: as §1

[4] = molecular target: T1, membrane VEGFR-2 (mVEGFR-2) (Homo sapiens, UniProt P35968); assay: Membrane VEGFR-2 relative quantification by flow cytometry; format: cell-based; settings: for mVEGFR-2 relative detection, A-549 / mVEGFR-2 relative detection, MCF-7 / mVEGFR-2 relative detection, HT-29: 24 h, 100 or 10 μM (Table 7), sorafenib 10 μM, percentage referred to DMSO control; for Inhibition of membrane VEGFR-2, HT-29: with respect to untreated cells
T1 construct: endogenous in cells; host or cells: HT-29, A-549, MCF-7
Method: The presence of both targets in the membrane was relatively determined by using DMSO-treated cells as a negative control.
For the assay, 10^5 cells per well were incubated for 24 h with the corresponding dose of the tested compound in a total volume of 500 μL of their growth media.

total PD-L1 (tPD-L1) = molecular target: T2, total PD-L1 (tPD-L1) (Homo sapiens, UniProt Q9NZQ7); assay: Total PD-L1 relative quantification by flow cytometry; format: cell-based; settings: for tPD-L1 relative detection, A-549 / tPD-L1 relative detection, HT-29 / tPD-L1 relative detection, MCF-7: 24 h, 100 or 10 μM (Table 7), relative to DMSO control
T2 construct: endogenous in cells; host or cells: HT-29, A-549, MCF-7

c-Myc = c-Myc relative quantification by flow cytometry; format: cell-based, human; settings: for c-Myc relative detection, A-549 / c-Myc relative detection, HT-29 / c-Myc relative detection, MCF-7: 24 h, 100 or 10 μM (Table 7), relative to DMSO control
PD-L1 = molecular target: T3, PD-L1 (Homo sapiens, UniProt Q9NZQ7); assay: Protein thermal shift (PTS) assay; format: binding; settings: for PTS Tm: PD-L1 melting temperature, DMSO 34 °C; for PTS ΔTm: shift of PD-L1 melting temperature vs DMSO
T3 construct: purchased ab167713
Text: This assay measures the melting point (Tm) of the target protein which is a proxy of its stability that can be altered by the binding of a ligand. A change in the melting point relative to the unliganded form implies that a ligand has bound itself to the targeted protein. According to the fundamentals of this technique, an increase in Tm means that the binding of the ligand leads to a stabilization of the target protein, while a decrease in Tm is probably due to the fact that the binding between the ligand and its target leads to a destabilization of the protein. In this case, the tested compounds were able to change the PD-L1 melting temperature.
PTS assay was performed by following the instructions indicated in Protein Thermal ShiftTM Dye Kit (Applied Biosystems reference 4461146), using 2 μL of a 0.1 mg/mL of an aqueous solution of PD-L1 (reference ab167713) and 1.5 μL of a 0.1 mg/mL aqueous solution of the corresponding product. The melting curves were registered by a StepOneTM Real-Time PCR System.

HMEC-1 cells = assay: Tube formation on Matrigel (antiangiogenic activity); format: cell-based; settings: 100 μM, 24 h
Method: Then we went on to study the effect of these selected compounds on the formation of new capillary networks. Again, HMEC-1 cells were seeded on Matrigel and treated with compounds 21, 22, and 23 at 100 μM. After 24 h of the corresponding treatments, we compared the cultures with non-treated cells, and the results are depicted in Figure 5d–f.
Wells of a IBIDI 15-well μ-plate for angiogenesis were coated with 15 μL of Matrigel® (10 mg/mL, BD Biosciences Europe) at 4 °C. After gelatinization at 37 °C for 30 min, HMEC-1 cells were seeded at 2 × 10^4 cells/well in 25 μL of culture medium on top of the Matrigel and were incubated for 30 min at 37 °C while they were attached.
For the tube-formation assay (study of antiangiogenic activity), 100 μM of compounds was added 20 min after seeding HMEC-1 on Matrigel.

T3 sequence (Q9NZQ7 19-290): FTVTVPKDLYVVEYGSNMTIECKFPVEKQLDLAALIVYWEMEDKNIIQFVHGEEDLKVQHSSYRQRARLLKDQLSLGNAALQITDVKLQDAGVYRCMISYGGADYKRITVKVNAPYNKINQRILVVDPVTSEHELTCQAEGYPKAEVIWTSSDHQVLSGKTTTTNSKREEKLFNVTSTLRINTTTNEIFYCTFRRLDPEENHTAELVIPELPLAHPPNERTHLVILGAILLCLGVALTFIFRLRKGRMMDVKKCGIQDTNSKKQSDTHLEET
T2 sequence (Q9NZQ7 19-290): as above
T1 sequence (P35968 20-1356): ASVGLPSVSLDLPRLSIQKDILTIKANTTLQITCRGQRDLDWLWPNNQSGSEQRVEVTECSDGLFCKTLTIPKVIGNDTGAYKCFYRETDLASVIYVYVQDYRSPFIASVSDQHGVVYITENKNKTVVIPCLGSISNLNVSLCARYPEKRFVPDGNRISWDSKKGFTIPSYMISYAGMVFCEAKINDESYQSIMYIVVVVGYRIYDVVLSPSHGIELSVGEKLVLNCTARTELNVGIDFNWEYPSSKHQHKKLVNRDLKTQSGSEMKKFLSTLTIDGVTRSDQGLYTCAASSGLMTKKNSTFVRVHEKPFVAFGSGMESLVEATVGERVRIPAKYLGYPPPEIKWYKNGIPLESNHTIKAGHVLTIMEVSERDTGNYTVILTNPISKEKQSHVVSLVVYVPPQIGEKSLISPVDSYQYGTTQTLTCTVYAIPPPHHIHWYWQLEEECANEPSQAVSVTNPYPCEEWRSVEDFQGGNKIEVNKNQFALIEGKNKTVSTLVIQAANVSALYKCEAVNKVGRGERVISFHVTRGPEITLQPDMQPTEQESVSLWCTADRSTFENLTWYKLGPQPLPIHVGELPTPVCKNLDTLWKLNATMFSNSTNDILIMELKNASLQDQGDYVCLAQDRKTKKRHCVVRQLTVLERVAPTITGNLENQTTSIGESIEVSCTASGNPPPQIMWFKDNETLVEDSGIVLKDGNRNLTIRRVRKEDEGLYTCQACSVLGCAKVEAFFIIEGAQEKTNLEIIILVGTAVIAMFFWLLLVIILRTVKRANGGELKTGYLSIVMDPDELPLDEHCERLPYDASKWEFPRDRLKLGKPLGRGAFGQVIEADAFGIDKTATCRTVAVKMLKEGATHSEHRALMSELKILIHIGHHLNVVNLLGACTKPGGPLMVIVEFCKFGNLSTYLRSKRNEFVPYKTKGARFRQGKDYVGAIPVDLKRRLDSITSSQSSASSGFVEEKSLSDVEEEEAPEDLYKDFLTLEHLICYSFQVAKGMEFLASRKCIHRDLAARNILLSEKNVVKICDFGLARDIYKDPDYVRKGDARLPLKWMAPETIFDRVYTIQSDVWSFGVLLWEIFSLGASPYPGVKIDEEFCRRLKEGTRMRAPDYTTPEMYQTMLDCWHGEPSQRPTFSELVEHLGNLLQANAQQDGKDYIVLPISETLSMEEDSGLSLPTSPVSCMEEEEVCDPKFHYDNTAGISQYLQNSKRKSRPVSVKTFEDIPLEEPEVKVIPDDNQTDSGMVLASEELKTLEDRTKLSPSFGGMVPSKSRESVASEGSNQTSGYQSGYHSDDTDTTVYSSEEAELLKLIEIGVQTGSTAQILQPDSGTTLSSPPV

SMILES: Nc1ccc(-c2cn(Cc3cccc(Cl)c3)nn2)cc1 [Compound 22, 4-(1-(3-chlorobenzyl)-1H-1,2,3-triazol-4-yl)aniline]
- IC50 [1]: > 100 µM
- IC50 [2]: > 100 µM
- IC50 [3]: > 100 µM
- mVEGFR-2 relative detection, A-549 [4]: >100%
- Inhibition of membrane VEGFR-2, HT-29 [4]: ~40%
- mVEGFR-2 relative detection, MCF-7 [4]: >100%
- tPD-L1 relative detection, A-549 (total PD-L1 (tPD-L1)): 75 ± 10%
- tPD-L1 relative detection, HT-29 (total PD-L1 (tPD-L1)): 52 ± 7%
- Inhibition of total PD-L1, MCF-7 (total PD-L1 (tPD-L1)): around 40%
- tPD-L1 relative detection, MCF-7 (total PD-L1 (tPD-L1)): 69 ± 7%
- c-Myc relative detection, A-549 (c-Myc): >100%
- c-Myc relative detection, HT-29 (c-Myc; HT-29): >100%
- c-Myc relative detection, MCF-7 (c-Myc): 59 ± 5%
- PTS Tm (PD-L1): 26 °C
- PTS ΔTm (PD-L1): −8 °C
- Antiangiogenic effect on formation of new HMEC-1 capillary networks (HMEC-1 cells): interfered with the formation of new microvessel networks
- melting point: 143 to 144 °C

SMILES: Nc1ccc(-c2cn(Cc3ccc(Cl)cc3)nn2)cc1 [Compound 23, 4-(1-(4-chlorobenzyl)-1H-1,2,3-triazol-4-yl)aniline]
- IC50 [1]: > 100 µM
- IC50 [2]: > 100 µM
- IC50 [3]: > 100 µM
- mVEGFR-2 relative detection, A-549 [4]: >100%
- mVEGFR-2 relative detection, HT-29 [4]: 65% and 65 ± 4%
- Inhibition of membrane VEGFR-2, HT-29 [4]: ~40%
- mVEGFR-2 relative detection, MCF-7 [4]: >100%
- tPD-L1 relative detection, A-549 (total PD-L1 (tPD-L1)): 81 ± 15%
- tPD-L1 relative detection, HT-29 (total PD-L1 (tPD-L1)): 52 ± 3%
- Inhibition of total PD-L1, MCF-7 (total PD-L1 (tPD-L1)): around 40%
- tPD-L1 relative detection, MCF-7 (total PD-L1 (tPD-L1)): 61 ± 14%
- c-Myc relative detection, A-549 (c-Myc): >100%
- c-Myc relative detection, HT-29 (c-Myc; HT-29): 84 ± 5%
- Inhibition of c-Myc, HT-29 (c-Myc; HT-29, compared to non-treated cells): 20%
- c-Myc relative detection, MCF-7 (c-Myc): 51 ± 8%
- PTS Tm (PD-L1): 29 °C
- PTS ΔTm (PD-L1): −5 °C
- Antiangiogenic effect on formation of new HMEC-1 capillary networks (HMEC-1 cells): interfered with the formation of new microvessel networks
- melting point: 164 to 166 °C

SMILES: Nc1ccc(-c2cn(Cc3ccccc3Cl)nn2)cc1 [Compound 21, 4-(1-(2-chlorobenzyl)-1H-1,2,3-triazol-4-yl)aniline]
- IC50 [1]: > 100 µM
- IC50 [2]: > 100 µM
- IC50 [3]: > 100 µM
- mVEGFR-2 relative detection, A-549 [4]: >100%
- mVEGFR-2 relative detection, HT-29 [4]: 92 ± 5%
- mVEGFR-2 relative detection, MCF-7 [4]: >100%
- tPD-L1 relative detection, A-549 (total PD-L1 (tPD-L1)): 78 ± 9%
- tPD-L1 relative detection, HT-29 (total PD-L1 (tPD-L1)): 60 ± 6%
- tPD-L1 relative detection, MCF-7 (total PD-L1 (tPD-L1)): >100%
- c-Myc relative detection, A-549 (c-Myc): >100%
- c-Myc relative detection, HT-29 (c-Myc; HT-29): >100%
- c-Myc relative detection, MCF-7 (c-Myc): 59 ± 6%
- PTS Tm (PD-L1): 30 °C
- PTS ΔTm (PD-L1): −4 °C
- Antiangiogenic effect on formation of new HMEC-1 capillary networks (HMEC-1 cells): interfered with the formation of new microvessel networks
- melting point: 112 to 115 °C
